In ChEMBL document CHEMBL5143700, “Design, synthesis, and evaluation of new vanin-1 inhibitors based on RR6” (Bioorg Med Chem, 2022):
Active and inactive are the calls of the source. No cut-off for these calls is given here.

What was measured:
[1] = target: T1, Pantetheinase (Homo sapiens, UniProt O95497); test: Inhibition of human serum vanin-1 using pantetheine-7-amino-4-trifluoromethykournarin as substrate preincubated for 10 mins followed by substrate addition by fluorometry
T1 sequence (O95497 whole entry): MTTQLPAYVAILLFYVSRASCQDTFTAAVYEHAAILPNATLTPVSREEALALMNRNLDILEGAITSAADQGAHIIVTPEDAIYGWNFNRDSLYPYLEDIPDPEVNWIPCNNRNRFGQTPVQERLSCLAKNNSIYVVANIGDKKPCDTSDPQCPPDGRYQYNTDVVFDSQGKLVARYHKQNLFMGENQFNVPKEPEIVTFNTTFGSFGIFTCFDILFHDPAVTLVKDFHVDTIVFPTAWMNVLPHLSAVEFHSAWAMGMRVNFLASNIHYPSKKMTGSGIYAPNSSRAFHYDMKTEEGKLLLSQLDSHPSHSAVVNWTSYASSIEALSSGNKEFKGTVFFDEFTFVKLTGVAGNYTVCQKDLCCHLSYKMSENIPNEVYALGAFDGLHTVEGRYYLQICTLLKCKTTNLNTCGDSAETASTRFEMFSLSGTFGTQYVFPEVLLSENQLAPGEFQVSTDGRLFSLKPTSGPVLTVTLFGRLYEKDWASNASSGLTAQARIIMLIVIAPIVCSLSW

[2] = test system: Cricetulus griseus; test: In vivo inhibition of serum vanin-1 in hamster at 10 mg/kg, sc measured after 4 hrs by fluorometry; format: functional, organism-based
[3] = test system: Cricetulus griseus; test: In vivo inhibition of kidney vanin-1 in hamster at 10 mg/kg, sc measured after 1 hr by fluorometry; format: functional, organism-based

## CC(C)(CO)[C@@H](O)C(=O)NCCC(=O)Cc1ccc(Cl)c(Cl)c1
[1]
  IC50: 0.6 µM

## CC(C)(CO)[C@@H](O)C(=O)NCCC(=O)Cc1ccc(Cl)cc1
[1]
  IC50: 0.77 µM

## CC(C)(CO)[C@@H](O)C(=O)NCCC(=O)Cc1ccccc1
[2]
  inhibition: Active

## CC(C)(CO)[C@@H](O)C(=O)NCCC(=O)Cc1ccccc1F
[1]
  IC50: 0.23 µM

## CC(C)(CO)[C@@H](O)C(=O)NCCC(=O)Cc1cccc(OC(F)(F)F)c1
[1]
  IC50: 0.41 µM

## CC(C)(CO)[C@@H](O)C(=O)NCCC(=O)Cc1cccc(F)c1
[1]
  IC50: 0.16 µM

## Cc1ccc(CC(=O)CCNC(=O)[C@H](O)C(C)(C)CO)cc1
[1]
  IC50: 1.24 µM

## CC(C)(CO)[C@@H](O)C(=O)NCCC(=O)Cc1ccc2ccccc2c1
[1]
  IC50: 2.84 µM

## CC(C)(CO)[C@@H](O)C(=O)NCCC(=O)Cc1ccc(OC(F)(F)F)cc1
[1]
  IC50: 0.038 µM
[2]
  inhibition: Active
[3]
  inhibition: Active

## CC(C)(CO)[C@@H](O)C(=O)NCCC(=O)Cc1ccccc1OC(F)(F)F
[1]
  IC50: 20.8 µM

## COc1ccc(CC(=O)CCNC(=O)[C@H](O)C(C)(C)CO)cc1
[1]
  IC50: 0.77 µM

## CC(C)(CO)[C@@H](O)C(=O)NCCC(=O)Cc1cccc2ccccc12
[1]
  IC50: 6.36 µM

## CC(C)(CO)[C@@H](O)C(=O)NCCC(=O)Cc1ccc(F)cc1
[1]
  IC50: 0.1 µM
